In US7635572B2, “Methods for conducting assays for enzyme activity on protein microarrays” (Life Technologies Corporation, priority 2004, dated 2009):
Where two headings read alike, the source gives them in different places.

Columns and labels:
[1] = biological target: plurality of kinases (Table 5) (Homo sapiens, UniProt P68400); assay: Further analysis of a plurality of inhibitors and a plurality of kinases on microarray (Example IX, Table 5); type: biochemical;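 further: inhibition of each kinase by the inhibitors is given as a qualitative level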;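 on Inhibition level, CAMK2D: level 0 none or unclear then 1 little or marginal then 2 substantial inhibition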
Sequence of plurality of kinases (Table 5) (Homo sapiens, UniProt P68400) (P68400 whole entry): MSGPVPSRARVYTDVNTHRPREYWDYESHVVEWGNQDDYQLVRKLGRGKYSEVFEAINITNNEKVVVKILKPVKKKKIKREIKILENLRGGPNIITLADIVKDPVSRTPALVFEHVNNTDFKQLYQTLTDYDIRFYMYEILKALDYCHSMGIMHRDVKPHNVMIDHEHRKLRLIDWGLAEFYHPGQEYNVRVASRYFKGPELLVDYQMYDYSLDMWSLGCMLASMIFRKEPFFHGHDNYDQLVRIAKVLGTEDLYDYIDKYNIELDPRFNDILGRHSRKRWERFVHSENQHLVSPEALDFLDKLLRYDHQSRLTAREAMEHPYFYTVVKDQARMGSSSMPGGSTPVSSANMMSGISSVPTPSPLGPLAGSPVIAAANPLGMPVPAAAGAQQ

[2] = biological target: T1, plurality of kinases (Table 5) (Homo sapiens, UniProt Q12866); assay: as above; type: biochemical; settings: plate B11; inhibitor 100 uM
T1 sequence (Q12866 21-999): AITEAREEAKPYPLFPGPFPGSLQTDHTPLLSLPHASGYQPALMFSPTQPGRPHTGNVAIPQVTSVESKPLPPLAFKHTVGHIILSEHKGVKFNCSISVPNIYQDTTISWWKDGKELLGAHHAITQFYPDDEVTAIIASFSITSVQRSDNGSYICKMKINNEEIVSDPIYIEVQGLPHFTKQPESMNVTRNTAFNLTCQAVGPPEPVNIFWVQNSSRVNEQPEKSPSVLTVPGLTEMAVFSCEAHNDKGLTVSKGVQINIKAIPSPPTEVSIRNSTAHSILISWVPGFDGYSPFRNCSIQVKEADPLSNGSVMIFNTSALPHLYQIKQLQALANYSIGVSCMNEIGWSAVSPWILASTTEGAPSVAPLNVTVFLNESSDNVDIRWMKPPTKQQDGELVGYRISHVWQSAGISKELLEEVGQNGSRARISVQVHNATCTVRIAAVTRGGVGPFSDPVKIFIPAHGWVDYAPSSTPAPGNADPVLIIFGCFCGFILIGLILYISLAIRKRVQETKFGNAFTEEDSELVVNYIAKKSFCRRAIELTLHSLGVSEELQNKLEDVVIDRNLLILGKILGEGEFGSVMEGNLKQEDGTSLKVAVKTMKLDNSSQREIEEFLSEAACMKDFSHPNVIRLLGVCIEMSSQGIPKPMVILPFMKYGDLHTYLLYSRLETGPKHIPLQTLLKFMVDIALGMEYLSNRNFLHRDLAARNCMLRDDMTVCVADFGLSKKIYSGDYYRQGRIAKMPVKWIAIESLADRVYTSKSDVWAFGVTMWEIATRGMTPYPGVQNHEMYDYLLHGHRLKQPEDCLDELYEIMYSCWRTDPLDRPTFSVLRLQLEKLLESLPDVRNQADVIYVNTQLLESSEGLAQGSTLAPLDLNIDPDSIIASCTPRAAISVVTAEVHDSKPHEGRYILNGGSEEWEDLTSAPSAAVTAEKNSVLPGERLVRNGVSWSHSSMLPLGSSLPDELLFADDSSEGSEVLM

[3] = biological target: T2, plurality of kinases (Table 5) (Homo sapiens, UniProt Q99759); assay: as above; type: biochemical; settings: plate A1
T2 sequence (Q99759 1-626): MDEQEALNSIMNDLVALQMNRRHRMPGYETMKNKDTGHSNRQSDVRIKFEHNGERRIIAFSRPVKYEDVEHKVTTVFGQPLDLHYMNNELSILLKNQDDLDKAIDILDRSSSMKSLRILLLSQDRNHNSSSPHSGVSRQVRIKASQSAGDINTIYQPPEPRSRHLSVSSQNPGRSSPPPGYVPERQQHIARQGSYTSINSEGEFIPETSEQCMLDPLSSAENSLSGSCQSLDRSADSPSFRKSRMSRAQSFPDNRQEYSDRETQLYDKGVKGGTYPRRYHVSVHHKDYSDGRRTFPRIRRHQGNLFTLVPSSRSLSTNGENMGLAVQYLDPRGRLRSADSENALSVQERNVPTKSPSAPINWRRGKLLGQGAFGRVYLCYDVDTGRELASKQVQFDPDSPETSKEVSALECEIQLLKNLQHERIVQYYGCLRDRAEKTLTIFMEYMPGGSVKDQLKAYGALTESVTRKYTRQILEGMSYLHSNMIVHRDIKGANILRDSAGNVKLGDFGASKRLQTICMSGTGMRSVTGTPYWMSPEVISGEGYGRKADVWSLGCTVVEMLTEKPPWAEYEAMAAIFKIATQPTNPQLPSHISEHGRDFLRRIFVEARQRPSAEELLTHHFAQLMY

[4] = biological target: plurality of kinases (Table 5) (Homo sapiens, UniProt P06239); assay: as above; type: biochemical
Sequence of plurality of kinases (Table 5) (Homo sapiens, UniProt P06239) (P06239 whole entry): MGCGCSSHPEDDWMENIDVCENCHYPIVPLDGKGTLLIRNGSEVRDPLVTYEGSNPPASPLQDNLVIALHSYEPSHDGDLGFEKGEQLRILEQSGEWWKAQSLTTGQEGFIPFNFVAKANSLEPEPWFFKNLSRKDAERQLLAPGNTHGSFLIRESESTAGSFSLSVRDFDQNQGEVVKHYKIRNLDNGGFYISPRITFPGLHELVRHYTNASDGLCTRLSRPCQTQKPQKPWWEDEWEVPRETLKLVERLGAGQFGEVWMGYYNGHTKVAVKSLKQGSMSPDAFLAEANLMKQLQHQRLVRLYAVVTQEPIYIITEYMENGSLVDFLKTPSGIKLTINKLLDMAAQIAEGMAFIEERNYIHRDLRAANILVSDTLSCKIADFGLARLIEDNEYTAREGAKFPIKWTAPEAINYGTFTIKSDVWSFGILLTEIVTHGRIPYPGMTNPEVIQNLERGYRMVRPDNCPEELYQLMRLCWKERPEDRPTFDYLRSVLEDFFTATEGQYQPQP

[5] = biological target: plurality of kinases (Table 5) (Homo sapiens, UniProt Q13557); assay: as above; type: biochemical; settings: plate B1; inhibitor 100 uM
Sequence of plurality of kinases (Table 5) (Homo sapiens, UniProt Q13557) (Q13557 whole entry): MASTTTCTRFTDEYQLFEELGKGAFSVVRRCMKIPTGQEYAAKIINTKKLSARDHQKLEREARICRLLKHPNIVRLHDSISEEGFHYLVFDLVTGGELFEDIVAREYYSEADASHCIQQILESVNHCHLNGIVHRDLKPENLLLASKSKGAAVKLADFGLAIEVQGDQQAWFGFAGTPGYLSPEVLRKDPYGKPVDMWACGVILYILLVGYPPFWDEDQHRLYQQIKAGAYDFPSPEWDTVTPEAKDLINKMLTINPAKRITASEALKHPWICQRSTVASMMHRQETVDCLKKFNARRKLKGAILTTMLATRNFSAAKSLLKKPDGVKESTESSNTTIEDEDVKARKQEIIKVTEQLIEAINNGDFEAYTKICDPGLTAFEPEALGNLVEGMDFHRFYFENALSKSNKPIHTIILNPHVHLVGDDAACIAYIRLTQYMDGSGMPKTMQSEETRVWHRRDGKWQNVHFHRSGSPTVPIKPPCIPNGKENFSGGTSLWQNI

EPHB3 = EPHB3 (Homo sapiens, UniProt P54753); assay: Dose-response analysis on 10-well kinase microarray (Example III, FIG. 4); type: biochemical; settings: different inhibitor concentration in each well; substrate MBP, histone, casein
Sequence of EPHB3 (P54753 34-998): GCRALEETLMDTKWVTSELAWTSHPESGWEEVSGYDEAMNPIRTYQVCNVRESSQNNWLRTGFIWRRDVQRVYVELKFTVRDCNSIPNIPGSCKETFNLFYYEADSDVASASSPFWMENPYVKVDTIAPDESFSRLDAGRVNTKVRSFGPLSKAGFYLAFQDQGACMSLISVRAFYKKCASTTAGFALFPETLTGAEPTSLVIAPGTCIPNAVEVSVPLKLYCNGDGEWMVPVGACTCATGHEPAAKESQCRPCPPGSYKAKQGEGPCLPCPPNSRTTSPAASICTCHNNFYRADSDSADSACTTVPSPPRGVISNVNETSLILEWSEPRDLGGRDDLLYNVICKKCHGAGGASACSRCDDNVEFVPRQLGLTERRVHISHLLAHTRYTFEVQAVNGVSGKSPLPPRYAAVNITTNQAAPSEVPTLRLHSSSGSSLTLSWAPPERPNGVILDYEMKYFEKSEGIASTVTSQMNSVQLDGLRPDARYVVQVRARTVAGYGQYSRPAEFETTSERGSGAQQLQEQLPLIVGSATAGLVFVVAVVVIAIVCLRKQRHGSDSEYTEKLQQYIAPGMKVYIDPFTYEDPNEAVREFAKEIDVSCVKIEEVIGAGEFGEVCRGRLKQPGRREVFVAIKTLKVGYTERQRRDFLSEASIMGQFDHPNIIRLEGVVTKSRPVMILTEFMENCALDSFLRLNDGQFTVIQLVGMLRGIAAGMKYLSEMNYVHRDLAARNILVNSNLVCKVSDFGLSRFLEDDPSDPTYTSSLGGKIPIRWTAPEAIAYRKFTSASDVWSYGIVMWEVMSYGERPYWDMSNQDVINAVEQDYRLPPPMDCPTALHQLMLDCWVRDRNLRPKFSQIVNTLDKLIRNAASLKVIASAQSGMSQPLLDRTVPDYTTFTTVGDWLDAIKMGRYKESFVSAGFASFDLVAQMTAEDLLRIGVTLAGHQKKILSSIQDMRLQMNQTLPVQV
Description: Microarrays were prepared with 10 wells/slide, wherein the kinases EPHB3, FYN, and PRKCD and their substrate were immobilized in each well. The slide was coated with substrate essentially as described in section 6.1. Subsequently, a gasket with 10 openings was applied to the surface of the slide thereby creating 10 wells, i.e., the gasket provides the barriers between the wells. The accession numbers for the different kinases in the NCBI database are: for FYN: NM_002037; for PRKCD: NM_006254; and for EPHB3: NM_004443.

PRKCD = PRKCD (Homo sapiens, UniProt Q05655); assay: as above; type: biochemical; settings: different inhibitor concentration in each well; substrate MBP, histone, casein
Sequence of PRKCD (Q05655 whole entry): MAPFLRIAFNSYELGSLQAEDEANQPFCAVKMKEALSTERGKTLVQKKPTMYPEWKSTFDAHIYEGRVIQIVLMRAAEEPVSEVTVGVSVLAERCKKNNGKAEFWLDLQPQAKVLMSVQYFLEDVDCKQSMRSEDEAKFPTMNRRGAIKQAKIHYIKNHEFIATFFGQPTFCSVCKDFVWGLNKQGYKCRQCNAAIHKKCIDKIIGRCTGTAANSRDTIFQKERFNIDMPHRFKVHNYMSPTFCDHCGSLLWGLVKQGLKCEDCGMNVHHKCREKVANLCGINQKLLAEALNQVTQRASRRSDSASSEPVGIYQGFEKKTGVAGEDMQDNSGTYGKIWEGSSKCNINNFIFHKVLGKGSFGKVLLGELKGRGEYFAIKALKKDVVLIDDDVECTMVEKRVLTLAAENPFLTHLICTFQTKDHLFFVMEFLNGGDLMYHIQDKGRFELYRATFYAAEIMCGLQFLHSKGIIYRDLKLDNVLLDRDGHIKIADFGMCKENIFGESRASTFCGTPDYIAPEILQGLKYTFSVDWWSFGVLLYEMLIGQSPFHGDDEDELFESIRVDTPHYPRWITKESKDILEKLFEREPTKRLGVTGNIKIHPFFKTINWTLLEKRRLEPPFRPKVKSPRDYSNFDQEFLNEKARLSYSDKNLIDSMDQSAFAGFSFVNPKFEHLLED
Description: (§1) Microarrays were prepared with 10 wells/slide, wherein the kinases EPHB3, FYN, and PRKCD and their substrate were immobilized in each well. The slide was coated with substrate essentially as described in section 6.1. Subsequently, a gasket with 10 openings was applied to the surface of the slide thereby creating 10 wells, i.e., the gasket provides the barriers between the wells.

39 kinases (Table 4) = assay: Global specificity profiling, single point inhibition on kinase microarrays (Example VII); type: biochemical; settings: substrates histone, casein, MBP, polyEY, control 2% DMSO
Description: (§2) To assess the application of microarray assays for compound profiling, seven known inhibitors (see Table of inhibitors used in global specificity profiling experiment) and one control (2% DMSO) were tested on microarrays printed with a group of kinases (as well as positive and negative controls). […] Twelve spots of each kinase or control were printed on each array, and three arrays were used for each inhibitor. A mixture of generic kinase substrates (histone, casein, MBP, and polyEY) was used in the assay. The average of all signals from the same inhibitor or control experiment was calculated.
(§3) To expedite data analysis regarding the kinase families that are inhibited by a particular […], a graphical representation can be constructed of inhibition data for substrates in such a manner that phylogenetically related kinases can be spatially arranged on the graphical representation.

[6] = test system: 50 different human kinases; assay: Inhibitor specificity profiling on kinase microarray (Example II, FIG. 3); settings: 100 μm inhibitor; substrate mixture of MBP, histone and casein; versus control without inhibitor
Description: 1 mL of kinase assay buffer for every 12 glass slides to be probed is prepared. 6 μL of gamma-AT^33P (10 μCi/μL) are added to the assay buffer. The slides are placed in 50 mL conical tubes, laying flat, proteins facing up. 70 μL to 150 μL of the kinase assay buffer with gamma-AT^33P are added onto each slide. Using tweezers, the slide is covered with a hybridization slip, making sure that the solution completely covers the microarray. The conical tube is then closed and placed in a 30° C. incubator. Care should be taken that the slide is laying flat. The reaction is then incubated for 90 minutes. Subsequently, the tubes are removed from the incubator. Approximately 40 mL of dH2O are added to each tube and, using the tweezers, the hybridization slip is removed, the tube is closed and inverted several times for 1-2 minutes to rinse the slide inside the conical tube. The wash solution is then discarded. Approximately 40 mL of dH2O are added again to each tube, the tubes are closed and inverted several times for 1-2 minutes, the wash solution is discarded. The slides are then removed from the tubes and place in a slide box and centrifuged at 4000 rpm for 1-2 minutes.
A phosphor screen (suitable for ^33P) is re-activated for each membrane by exposing it to light for at least 30 minutes. […]

FYN [7] = biological target: T3, FYN (Homo sapiens, UniProt P06241); assay: Dose-response analysis on 10-well kinase microarray (Example III, FIG. 4); type: biochemical; settings: different inhibitor concentration in each well; substrate MBP, histone, casein
T3 sequence (P06241 whole entry): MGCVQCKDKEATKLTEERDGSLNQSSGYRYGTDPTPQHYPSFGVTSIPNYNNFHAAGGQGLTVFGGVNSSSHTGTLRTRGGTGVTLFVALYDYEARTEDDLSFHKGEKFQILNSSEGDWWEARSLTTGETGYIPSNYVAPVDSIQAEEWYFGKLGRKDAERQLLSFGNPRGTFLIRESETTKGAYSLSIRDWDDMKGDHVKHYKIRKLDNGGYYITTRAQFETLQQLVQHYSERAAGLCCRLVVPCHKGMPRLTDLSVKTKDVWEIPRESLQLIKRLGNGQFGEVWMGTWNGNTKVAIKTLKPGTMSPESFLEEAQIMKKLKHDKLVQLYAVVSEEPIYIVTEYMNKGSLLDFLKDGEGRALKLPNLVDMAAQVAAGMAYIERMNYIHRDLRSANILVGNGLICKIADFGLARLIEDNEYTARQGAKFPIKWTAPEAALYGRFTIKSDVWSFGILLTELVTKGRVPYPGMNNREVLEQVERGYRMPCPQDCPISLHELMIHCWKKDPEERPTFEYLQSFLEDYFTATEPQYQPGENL
Description: as §1

FYN [8] = biological target: T3, FYN; assay: Global specificity profiling, single point inhibition on kinase microarrays (Example VII); type: biochemical; settings: substrates histone, casein, MBP, polyEY
Description: as §2, §3

## N#C/C(=C/c1ccc(O)c(O)c1)C(=O)NCc1ccccc1 [AG 490]
[1]; plate D9, inhibitor 100 uM
  Inhibition level, CSNK2A1: 2
[2]
  Inhibition level, MERTK: 2
[3]; inhibitor 100 uM
  Inhibition level, MAP3K3: 2
[4]; plate A6, inhibitor 100 uM
  Inhibition level, LCK: 2

## COc1cc2ncnc(Nc3cccc(Cl)c3)c2cc1OC [AG 1478]
[1]; plate D9, inhibitor 100 uM
  Inhibition level, CSNK2A1: 2
[2]
  Inhibition level, MERTK: 2
[3]; inhibitor 100 uM
  Inhibition level, MAP3K3: 2
[4]
  Inhibition level, LCK: 2

## O=c1c(-c2ccc(O)cc2)coc2cc(O)cc(O)c12 [Genistein]
[1]; plate D9, Genistein, conc. not given
  Inhibition level, CSNK2A1: 0
[1]; plate D9, inhibitor 100 uM
  Inhibition level, CSNK2A1: 2
[2]
  Inhibition level, MERTK: 2
[3]; Genistein <3.7 mM
  Inhibition level, MAP3K3: 2
[3]; inhibitor 100 uM
  Inhibition level, MAP3K3: 2
[4]; plate A6, Genistein <3.7 mM
  Inhibition level, LCK: 0
[4]; plate A6, inhibitor 100 uM
  Inhibition level, LCK: 2

## O=S(=O)(NCCNC/C=C/c1ccc(Br)cc1)c1cccc2cnccc12 [H-89]
[1]; plate D9, inhibitor 100 uM
  Inhibition level, CSNK2A1: 0
[2]
  Inhibition level, MERTK: 2
[3]; inhibitor 100 uM
  Inhibition level, MAP3K3: 2
[4]; plate A6, inhibitor 100 uM
  Inhibition level, LCK: 2
[5]
  Inhibition level, CAMK2D: 0

## CC(C)(C)n1nc(-c2ccc(Cl)cc2)c2c(N)ncnc21 [PP2]
[1]; plate D9, inhibitor 100 uM
  Inhibition level, CSNK2A1: 2
[2]
  Inhibition level, MERTK: 2
[3]; inhibitor 100 uM
  Inhibition level, MAP3K3: 2
EPHB3
  inhibition of EPHB3 (dose-response curve): strongly inhibits
PRKCD
  inhibition of PRKCD (dose-response curve): but not the serine/threonine kinase PRKCD
39 kinases (Table 4)
  observed specificity (percentage-of-inhibition data for 39 kinases): primarily inhibited tyrosine kinases
[6]
  inhibition of tyrosine kinases: strongly inhibited

## O=c1c(O)c(-c2ccc(O)c(O)c2)oc2cc(O)cc(O)c12 [Quercetin]
[2]
  Inhibition level, MERTK: 1
[3]; inhibitor 100 uM
  Inhibition level, MAP3K3: 0

## Cn1cc(C2=C(c3cn(CCCSC(=N)N)c4ccccc34)C(=O)NC2=O)c2ccccc21 [Ro-31-8220]
[1]; plate D9, Ro-31-8220, conc. not given
  Inhibition level, CSNK2A1: 0
[1]; plate D9, inhibitor 100 uM
  Inhibition level, CSNK2A1: 2
[2]
  Inhibition level, MERTK: 2
[3]; Ro-31-8220 90 uM
  Inhibition level, MAP3K3: 2
[3]; inhibitor 100 uM
  Inhibition level, MAP3K3: 0
[4]; plate A6, Ro-31-8220 90 uM
  Inhibition level, LCK: 0
[4]; plate A6, inhibitor 100 uM
  Inhibition level, LCK: 2
39 kinases (Table 4)
  observed specificity (percentage-of-inhibition data for 39 kinases): more specifically targeted the serine-threonine kinases

## CC(=O)c1c(O)c(C)c(O)c(Cc2c(O)c3c(c(C(=O)/C=C/c4ccccc4)c2O)OC(C)(C)C=C3)c1O [Rottlerin (Mallotoxin)]
[1]; plate D9, inhibitor 100 uM
  Inhibition level, CSNK2A1: 2
[2]
  Inhibition level, MERTK: 2
[3]; inhibitor 100 uM
  Inhibition level, MAP3K3: 2
[4]; plate A6, inhibitor 100 uM
  Inhibition level, LCK: 2
[5]
  Inhibition level, CAMK2D: 2

## CN[C@@H]1C[C@H]2O[C@@](C)([C@@H]1OC)n1c3ccccc3c3c4c(c5c6ccccc6n2c5c31)C(=O)NC4 [Staurosporine]
[1]
  Inhibition level, CSNK2A1: 2
[3]; Staurosporine 21.5 uM
  Inhibition level, MAP3K3: 2
FYN [7]
  inhibition of FYN (dose-response curve): strongly inhibits
FYN [8]
  inhibition of FYN in global specificity profiling: inhibited
